The values that follow come from patent US20240391936A1, “TETRAHYDROTHIENO PYRIDINE DERIVATIVES AS DDRS INHIBITORS” (CHIESI FARMACEUTICI S.P.A., priority 2021, published 2024).

The target of assay [1] is T1, DDR1 (Homo sapiens, UniProt Q08345). Nature of the assay: DDR1 binding assay (LanthaScreen Europium Kinase Binding assay). Conditions: binding assay, 5 nM DDR1, 20 nM Kinase Tracer 178; Ki from IC50 by Cheng-Prusoff; read-out: Ki DDR1. Also noted: purchased Carna Biosciences. In short, it runs like this: (§1)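 TR-FRET tracer-displacement format: 665/615 nm emission ratio (340 nm excitation) gave IC50 by 4-parameter fit, then Ki via Cheng-Prusoff. Each kinase at 5 nM with 2 nM Eu-anti-GST antibody and Tracer 178 (DDR1 20 nM, DDR2 10 nM), 1 h, room temperature, HEPES pH 7.5 buffer.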

Assay [2] deals with T2, DDR2 (Homo sapiens, UniProt Q16832).
T2 sequence (Q16832 22-855): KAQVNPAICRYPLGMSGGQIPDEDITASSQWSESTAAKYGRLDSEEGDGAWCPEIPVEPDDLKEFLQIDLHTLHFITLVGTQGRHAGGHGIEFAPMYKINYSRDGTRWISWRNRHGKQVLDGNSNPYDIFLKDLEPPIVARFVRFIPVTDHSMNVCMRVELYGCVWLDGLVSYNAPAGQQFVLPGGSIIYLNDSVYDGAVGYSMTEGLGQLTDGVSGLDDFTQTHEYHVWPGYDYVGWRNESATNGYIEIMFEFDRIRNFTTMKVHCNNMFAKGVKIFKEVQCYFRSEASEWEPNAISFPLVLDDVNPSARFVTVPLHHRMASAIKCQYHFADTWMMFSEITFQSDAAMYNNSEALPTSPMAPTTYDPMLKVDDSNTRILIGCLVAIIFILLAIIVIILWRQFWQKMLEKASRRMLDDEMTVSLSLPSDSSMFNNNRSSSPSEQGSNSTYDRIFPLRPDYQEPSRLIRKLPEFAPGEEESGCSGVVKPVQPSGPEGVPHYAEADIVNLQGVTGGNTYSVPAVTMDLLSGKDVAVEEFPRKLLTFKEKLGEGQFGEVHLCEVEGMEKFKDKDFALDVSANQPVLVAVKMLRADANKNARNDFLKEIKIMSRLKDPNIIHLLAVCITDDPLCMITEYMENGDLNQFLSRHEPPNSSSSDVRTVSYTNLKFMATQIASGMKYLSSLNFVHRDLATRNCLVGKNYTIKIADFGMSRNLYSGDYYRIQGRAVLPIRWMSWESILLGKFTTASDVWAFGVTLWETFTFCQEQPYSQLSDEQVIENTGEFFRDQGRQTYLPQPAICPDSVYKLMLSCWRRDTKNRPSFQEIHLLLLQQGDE
Nature of the assay: DDR2 binding assay (LanthaScreen Europium Kinase Binding assay). Also noted: purchased Life Technologies. Particulars: binding assay, 5 nM DDR2, 10 nM Kinase Tracer 178; Ki from IC50 by Cheng-Prusoff; read-out: Ki DDR2. In short, it runs like this: as §1

The target of assay [3] is T1, DDR1. The assay can be described thus: DDR1 cell based assay (PathHunter U2OS DDR1 assay). Also noted: host or cells: U2OS-DDR1 (PathHunter). Particulars: U2OS-DDR1 cells, bovine Type II Collagen 20 μg/ml. In short, it runs like this:
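Receptor activation measured by enzyme-fragment complementation luminescence in engineered U2OS cells. Compound added 30 min before overnight challenge with 20 μg/ml bovine collagen II; data scaled between vehicle and collagen-stimulated controls, IC50 derived by four-parameter variable-slope fitting.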

T1 sequence (Q08345 19-913): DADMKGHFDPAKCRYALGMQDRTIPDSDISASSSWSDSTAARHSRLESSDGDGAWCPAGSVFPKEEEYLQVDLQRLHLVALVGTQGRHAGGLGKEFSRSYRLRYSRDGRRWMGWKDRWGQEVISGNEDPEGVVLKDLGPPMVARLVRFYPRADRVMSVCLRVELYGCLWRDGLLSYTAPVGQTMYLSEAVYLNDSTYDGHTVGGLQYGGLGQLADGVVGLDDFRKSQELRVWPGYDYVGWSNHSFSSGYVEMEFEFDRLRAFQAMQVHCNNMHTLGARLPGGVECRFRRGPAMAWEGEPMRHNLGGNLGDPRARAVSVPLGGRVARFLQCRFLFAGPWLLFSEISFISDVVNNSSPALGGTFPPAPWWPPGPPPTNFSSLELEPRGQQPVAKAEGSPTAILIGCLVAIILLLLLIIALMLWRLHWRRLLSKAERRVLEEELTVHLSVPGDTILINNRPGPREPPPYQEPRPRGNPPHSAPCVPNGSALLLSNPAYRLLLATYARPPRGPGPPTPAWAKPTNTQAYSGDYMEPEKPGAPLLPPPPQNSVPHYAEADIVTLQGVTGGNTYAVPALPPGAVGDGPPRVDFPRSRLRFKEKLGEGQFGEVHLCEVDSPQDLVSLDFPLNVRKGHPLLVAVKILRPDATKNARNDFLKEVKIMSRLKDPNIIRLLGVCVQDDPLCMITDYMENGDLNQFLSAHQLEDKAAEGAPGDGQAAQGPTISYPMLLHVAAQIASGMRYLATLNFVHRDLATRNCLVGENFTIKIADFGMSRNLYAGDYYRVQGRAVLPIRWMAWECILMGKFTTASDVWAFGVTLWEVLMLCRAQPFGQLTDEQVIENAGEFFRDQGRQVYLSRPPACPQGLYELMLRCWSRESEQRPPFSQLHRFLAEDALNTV

With `CC(C)(C)c1cc(NC(=O)c2csc3c2CCN(C(=O)c2cnn4ccncc24)C3)no1` [Example 175, N-(5-(tert-butyl)isoxazol-3-yl)-6-(pyrazolo[1,5-a]pyrazine-3-carbonyl)-4,5,6,7-tetrahydrothieno[2,3-c]pyridine-3-carboxamide], the Ki in assay [1] and in assay [2] was below 25 nM throughout. The compound also gave an IC50 in assay [3] of 50 to 80 nM.
Consider `Cc1cccc2ncc(C(=O)N3CCc4c(C(=O)Nc5cc(CN6CC[C@@H](N(C)C)C6)cc(C(F)(F)F)c5)csc4C3)n12` [Example 162, (R)—N-(3-((3-(dimethylamino)pyrrolidin-1-yl)methyl)-5-(trifluoromethyl)phenyl)-6-(5-methylimidazo[1,2-a]pyridine-3-carbonyl)-4,5,6,7-tetrahydrothieno[2,3-c]pyridine-3-carboxamide], for which the Ki in assay [1] is below 25 nM; in assay [2] it was 25 to 50 nM. Moreover, in assay [3], the IC50 is 25 to 50 nM.
Take `CC(C)Cc1cc(NC(=O)c2csc3c2CCN(C(=O)c2cnn4ccncc24)C3)on1` [Example 183, N-(3-isobutylisoxazol-5-yl)-6-(pyrazolo[1,5-a]pyrazine-3-carbonyl)-4,5,6,7-tetrahydrothieno[2,3-c]pyridine-3-carboxamide]: the inhibition constant (Ki) in assay [1] and in assay [2] was below 25 nM each time. In assay [3], this compound showed an IC50 of 50 to 80 nM.
Consider `O=C(Nc1cc(F)cc(C(F)(F)F)c1)c1csc2c1CCN(C(=O)c1cnn3cccnc13)C2` [Example 97, N-(3-fluoro-5-(trifluoromethyl)phenyl)-6-(pyrazolo[1,5-a]pyrimidine-3-carbonyl)-4,5,6,7-tetrahydrothieno[2,3-c]pyridine-3-carboxamide], for which the inhibition constant (Ki) in assay [1] and in assay [2] was below 25 nM each time. This compound had an IC50 in assay [3] below 25 nM.
Turning to `CN1CCN(c2ccc3ncc(C(=O)N4CCc5c(C(=O)Nc6cc(C(C)(C)C)n(C)n6)csc5C4)n3c2)CC1` [Example 145, N-(5-(tert-butyl)-1-methyl-1H-pyrazol-3-yl)-6-(6-(4-methylpiperazin-1-yl)imidazo[1,2-a]pyridine-3-carbonyl)-4,5,6,7-tetrahydrothieno[2,3-c]pyridine-3-carboxamide], the values for the Ki in assay [1] and in assay [2] were below 25 nM and 25 to 50 nM, respectively. Further, the IC50 in assay [3] lay within 25 to 50 nM.
As for `O=C(Nc1cncc(C(F)(F)F)c1)c1csc2c1CCN(C(=O)c1cnc3n1CCCC3)C2` [Example 111, 6-(5,6,7,8-tetrahydroimidazo[1,2-a]pyridine-3-carbonyl)-N-(5-(trifluoromethyl)pyridin-3-yl)-4,5,6,7-tetrahydrothieno[2,3-c]pyridine-3-carboxamide], the Ki in assay [1] and in assay [2] was below 25 nM each time. For the same compound, in assay [3], the IC50 fell in the range of 50 to 80 nM.
Turning to `O=C(Nc1cc(CN2CCCC2)cc(C(F)(F)F)c1)c1csc2c1CCN(C(=O)c1cnc3ccccn13)C2` [Example 11], the Ki in assay [1] and in assay [2] was below 25 nM each time. This compound also came in with an IC50 in assay [3] below 25 nM.
Take `CC1Cc2c(C(=O)Nc3cccc(C(F)(F)F)c3)csc2CN1Cc1cnc2cnccn12` (single isomer, unassigned) [Example 105, 6-(imidazo[1,2-a]pyrazin-3-ylmethyl)-5-methyl-N-(3-(trifluoromethyl)phenyl)-4,5,6,7-tetrahydrothieno[2,3-c]pyridine-3-carboxamide]: the Ki in assay [1] and in assay [2] was below 25 nM each time. Also, the IC50 in assay [3] lay within 50 to 80 nM.
Turning to `O=C(Nc1ccc(CN2CCCC2)c(C(F)(F)F)c1)c1csc2c1CCN(C(=O)c1cnc3ccccn13)C2` [Example 22, 6-(imidazo[1,2-a]pyridine-3-carbonyl)-N-(4-(pyrrolidin-1-ylmethyl)-3-(trifluoromethyl)phenyl)-4,5,6,7-tetrahydrothieno[2,3-c]pyridine-3-carboxamide], the Ki in assay [1] and in assay [2] was below 25 nM in each case. Further, the IC50 in assay [3] fell in the range of 50 to 80 nM.
Take `O=C(Nc1cncc(C(F)(F)F)c1)c1csc2c1CCN(C(=O)c1cnc3cnccn13)C2` [Example 127, 6-(imidazo[1,2-a]pyrazine-3-carbonyl)-N-(5-(trifluoromethyl)pyridin-3-yl)-4,5,6,7-tetrahydrothieno[2,3-c]pyridine-3-carboxamide]: the Ki in assay [1] and in assay [2] was below 25 nM each time. This compound also displayed an IC50 in assay [3] of 25 to 50 nM.
As for `O=C(Nc1cncc(C(F)(F)F)c1)c1csc2c1CCN(C(=O)c1cnn3ccccc13)C2` [Example 124, 6-(pyrazolo[1,5-a]pyridine-3-carbonyl)-N-(5-(trifluoromethyl)pyridin-3-yl)-4,5,6,7-tetrahydrothieno[2,3-c]pyridine-3-carboxamide], the inhibition constant Ki in assay [1] and in assay [2] was below 25 nM each time. In assay [3], this compound registered an IC50 below 25 nM.
For the compound `Cn1nc(C(C)(C)C)cc1NC(=O)c1csc2c1CCN(C(=O)c1cnc3ccc(C(F)(F)F)cn13)C2` [Example 82, N-(3-(tert-butyl)-1-methyl-1H-pyrazol-5-yl)-6-(6-(trifluoromethyl)imidazo[1,2-a]pyridine-3-carbonyl)-4,5,6,7-tetrahydrothieno[2,3-c]pyridine-3-carboxamide], the inhibition constant Ki in assay [1] and in assay [2] was below 25 nM in each case. This compound displayed an IC50 in assay [3] of 25 to 50 nM.
Take `O=C(Nc1ccc(OCC2COC2)c(C(F)(F)F)c1)c1csc2c1CCN(C(=O)c1cnc3ccccn13)C2` [Example 14, 6-(imidazo[1,2-a]pyridine-3-carbonyl)-N-(4-(oxetan-3-ylmethoxy)-3-(trifluoromethyl)phenyl)-4,5,6,7-tetrahydrothieno[2,3-c]pyridine-3-carboxamide]: the Ki in assay [1] and in assay [2] was below 25 nM each time. Besides, the IC50 in assay [3] was below 25 nM.
`O=C(Nc1cc(N2CCOCC2)cc(C(F)(F)F)c1)c1csc2c1CCN(C(=O)c1cnn3ccncc13)C2` [Example 182, N-(3-morpholino-5-(trifluoromethyl)phenyl)-6-(pyrazolo[1,5-a]pyrazine-3-carbonyl)-4,5,6,7-tetrahydrothieno[2,3-c]pyridine-3-carboxamide]: the Ki in assay [1] and in assay [2] was below 25 nM throughout. Besides, the IC50 in assay [3] is below 25 nM.
`O=C(Nc1cncc(C(F)(F)F)c1)c1csc2c1CCN(C(=O)c1cnc3cc(F)ccn13)C2` [Example 144, 6-(7-fluoroimidazo[1,2-a]pyridine-3-carbonyl)-N-(5-(trifluoromethyl)pyridin-3-yl)-4,5,6,7-tetrahydrothieno[2,3-c]pyridine-3-carboxamide]: the inhibition constant (Ki) in assay [1] and in assay [2] was below 25 nM in each case. Besides, the IC50 in assay [3] is below 25 nM.
Take `O=C(Nc1ccc(Cl)c(C(F)(F)F)c1)c1csc2c1CCN(C(=O)c1cnn3ccncc13)C2` [Example 176, N-(4-chloro-3-(trifluoromethyl)phenyl)-6-(pyrazolo[1,5-a]pyrazine-3-carbonyl)-4,5,6,7-tetrahydrothieno[2,3-c]pyridine-3-carboxamide]: the Ki in assay [1] and in assay [2] was below 25 nM throughout. This compound registered an IC50 in assay [3] of 50 to 80 nM.
`O=C(Nc1cc(CN2CCC(F)C2)cc(C(F)(F)F)c1)c1csc2c1CCN(C(=O)c1cnc3ccccn13)C2` (stereo not drawn) [Example 51, N-(3-((3-fluoropyrrolidin-1-yl)methyl)-5-(trifluoromethyl)phenyl)-6-(imidazo[1,2-a]pyridine-3-carbonyl)-4,5,6,7-tetrahydrothieno[2,3-c]pyridine-3-carboxamide]: the Ki in assay [1] and in assay [2] was below 25 nM throughout. In assay [3], this compound registered an IC50 of 25 to 50 nM.
